Our source for the IC50 values is patent US12485169B2, “Compounds” (GREY WOLF THERAPEUTICS LIMITED, priority 2018, dated 2025).

Molecules are shown by their SMILES.

In the test the target is T1, Purified ERAP1 (37-941)-10His (ERAP1) (Homo sapiens, UniProt Q9NZ08).
T1 construct: Purified ERAP1 (37-941)-10His (ERAP1)
T1 sequence (Q9NZ08 37-941): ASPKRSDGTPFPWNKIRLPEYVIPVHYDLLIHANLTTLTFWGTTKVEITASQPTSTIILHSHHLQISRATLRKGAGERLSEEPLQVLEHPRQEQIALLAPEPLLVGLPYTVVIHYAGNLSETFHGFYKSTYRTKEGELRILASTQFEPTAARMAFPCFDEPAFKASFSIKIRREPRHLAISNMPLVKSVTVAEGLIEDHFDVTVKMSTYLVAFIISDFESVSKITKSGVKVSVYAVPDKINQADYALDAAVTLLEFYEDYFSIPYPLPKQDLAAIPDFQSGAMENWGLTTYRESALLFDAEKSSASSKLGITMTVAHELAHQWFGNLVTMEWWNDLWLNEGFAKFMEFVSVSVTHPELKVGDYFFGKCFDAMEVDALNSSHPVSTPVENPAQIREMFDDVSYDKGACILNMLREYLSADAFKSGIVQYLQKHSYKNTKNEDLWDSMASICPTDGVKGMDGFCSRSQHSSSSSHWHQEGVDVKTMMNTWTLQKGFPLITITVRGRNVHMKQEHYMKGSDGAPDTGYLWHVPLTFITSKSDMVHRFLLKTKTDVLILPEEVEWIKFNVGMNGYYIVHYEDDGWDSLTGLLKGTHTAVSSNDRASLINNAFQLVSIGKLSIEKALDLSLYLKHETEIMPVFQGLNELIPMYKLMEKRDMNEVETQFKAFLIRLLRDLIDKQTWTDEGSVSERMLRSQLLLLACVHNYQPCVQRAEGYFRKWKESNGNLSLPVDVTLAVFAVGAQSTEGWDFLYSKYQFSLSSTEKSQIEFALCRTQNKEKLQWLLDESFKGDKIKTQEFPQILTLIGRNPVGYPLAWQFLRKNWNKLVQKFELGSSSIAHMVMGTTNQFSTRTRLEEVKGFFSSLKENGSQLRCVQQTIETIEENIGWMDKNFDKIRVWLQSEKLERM
As to the kind of experiment: ERAP1 mediated hydrolysis of an amide substrate (10-mer inhibition assay), biochemical system. To be noted: 10-mer substrate, 23° C., 1 h, excitation 279 nm / emission 355 nm; read-out: IC50 vs Decapeptide WRVYEKC(Dnp)ALK-acid (where Dnp is Dinitrophenyl maleimide) (10-mer). How it is done: However, as ERAP1 hydrolyses the N-terminal amide bond and tryptophan is released this internal quenching is lost and the reaction is monitored by the increase in tryptophan fluorescence over the course of the assay. For the purposes of this application this assay is referred to as the “10mer inhibition assay” and compound potencies are calculated and expressed as IC50 as would be familiar to a person skilled in the art.
Biological Assay 1: ERAP1 Mediated Hydrolysis of an Amide Substrate Measured in a Biochemical System
Decapeptide WRVYEKC(Dnp)ALK-acid (where Dnp is Dinitrophenyl maleimide) (10-mer) L-Leucine 7-amido-4-methylcoumarin (L-AMC)
12.5 μL ERAP1 enzyme in 1×AB was combined with 250 nL test compound in DMSO. […] For detection, plates were read at excitation 365 nm and emission 442 nm (L-AMC) or excitation 279 nm and emission 355 nm (10-mer).
Take `COc1ccc(C(=O)O)cc1S(=O)(=O)Nc1cc(C(F)(F)F)ccc1N1C[C@H](O)[C@@H](F)C1` (relative stereo) [Example 190, 3-(N-(2-(trans-3-fluoro-4-hydroxypyrrolidin-1-yl)-5-(trifluoromethyl)phenyl)sulfamoyl)-4-methoxybenzoic acid]: the IC50 was below 5000 nM.

`CCc1ccc(C(=O)O)cc1S(=O)(=O)Nc1cc(C(F)(F)F)ccc1N1CCCCC1` [Example 1, 4-Ethyl-3-(N-(2-(piperidin-1-yl)-5-(trifluoromethyl)phenyl)sulfamoyl)benzoic acid]: the IC50 is below 500 nM.

For `CC(C)c1ccc(C(=O)O)cc1S(=O)(=O)Nc1cc(C(F)(F)F)ccc1N1CCCCC1` [Example 3, 4-isopropyl-3-(N-(2-(piperidin-1-yl)-5-(trifluoromethyl)phenyl)sulfamoyl)benzoic acid], the half-inhibitory concentration (IC50) was below 500 nM.

In the case of `O=C(O)c1ccc(OC(F)(F)F)c(S(=O)(=O)Nc2cc(C(F)(F)F)ccc2N2CCCCC2)c1` [Example 4, 3-(N-(2-(piperidin-1-yl)-5-(trifluoromethyl)phenyl)sulfamoyl)-4-(trifluoromethoxy)benzoic acid], the concentration for half-maximal inhibition (IC50) is below 500 nM.

For `COc1ccc(C(=O)O)cc1S(=O)(=O)Nc1cc(C(F)(F)F)ccc1N1C[C@H](C)C[C@H](C)C1` [Example 6, 3-(N-(2-(cis-3,5-dimethylpiperidin-1-yl)-5-(trifluoromethyl)phenyl)sulfamoyl)-4-methoxybenzoic acid], the half-maximal inhibitory concentration (IC50) is below 500 nM.

Consider `COc1ccc(C(=O)O)cc1S(=O)(=O)Nc1cc(C(F)(F)F)ccc1N1CC2CCC(C1)O2` [Example 7, 3-(N-(2-(8-oxa-3-azabicyclo[3.2.1]octan-3-yl)-5-(trifluoromethyl)phenyl)sulfamoyl)-4-methoxybenzoic acid], for which the 50% inhibitory concentration (IC50) was below 5000 nM.

As to `COc1ccc(C(=O)O)cc1S(=O)(=O)Nc1cc(C(F)(F)F)ccc1N1C[C@H]2CN(C)C[C@H]2C1` [Example 8, 4-methoxy-3-(N-(2-(cis-5-methylhexahydropyrrolo[3,4-c]pyrrol-2 (1H)-yl)-5-(trifluoromethyl)phenyl)sulfamoyl)benzoic acid], the half-inhibitory concentration (IC50) was above 5000 nM.

In the case of `COc1ccc(C(=O)O)cc1S(=O)(=O)Nc1cc(C(F)(F)F)ccc1N1CCCC(F)(F)C1` [Example 9, 3-(N-(2-(3,3-difluoropiperidin-1-yl)-5-(trifluoromethyl)phenyl)sulfamoyl)-4-methoxybenzoic acid], the 50% inhibitory concentration (IC50) was below 500 nM.

As for `COc1ccc(C(=O)O)cc1S(=O)(=O)Nc1cc(C(F)(F)F)ccc1N1C2CCCC1CC2` [Example 10, 3-(N-(2-(8-azabicyclo[3.2.1]octan-8-yl)-5-(trifluoromethyl)phenyl)sulfamoyl)-4-methoxybenzoic acid], the IC50 was below 500 nM.

As for `COc1ccc(C(=O)O)cc1S(=O)(=O)Nc1cc(C(F)(F)F)ccc1N1CC2(CCCO2)C1` [Example 11, 3-(N-(2-(5-oxa-2-azaspiro[3.4]octan-2-yl)-5-(trifluoromethyl)phenyl)sulfamoyl)-4-methoxybenzoic acid], the IC50 is below 5000 nM.

Turning to `COc1ccc(C(=O)O)cc1S(=O)(=O)Nc1cc(C(F)(F)F)ccc1N1CCC(F)(F)CC1` [Example 12, 3-(N-(2-(4,4-difluoropiperidin-1-yl)-5-(trifluoromethyl)phenyl)sulfamoyl)-4-methoxybenzoic acid], the IC50 is below 500 nM.

`COc1ccc(C(=O)O)cc1S(=O)(=O)Nc1cc(C(F)(F)F)ccc1N1CC2CCC(C1)C2O` (stereo not shown) [Example 13, 3-(N-(2-(8-hydroxy-3-azabicyclo[3.2.1]octan-3-yl)-5-(trifluoromethyl)phenyl)sulfamoyl)-4-methoxybenzoic acid]: the IC50 is below 500 nM.

As for `COc1ccc(C(=O)O)cc1S(=O)(=O)Nc1cc(C(F)(F)F)ccc1N1CCC(O)C(F)(F)C1` (stereo not shown) [Example 14, 3-(N-(2-(3,3-difluoro-4-hydroxypiperidin-1-yl)-5-(trifluoromethyl)phenyl)sulfamoyl)-4-methoxybenzoic acid], the 50% inhibitory concentration (IC50) was below 500 nM.

For the compound `CCC1(O)CCN(c2ccc(C(F)(F)F)cc2NS(=O)(=O)c2cc(C(=O)O)ccc2OC)CC1` [Example 15, 3-(N-(2-(4-ethyl-4-hydroxypiperidin-1-yl)-5-(trifluoromethyl)phenyl)sulfamoyl)-4-methoxybenzoic acid], the IC50 was below 500 nM.

Take `COc1ccc(C(=O)O)cc1S(=O)(=O)Nc1cc(C(F)(F)F)ccc1N1CCC(OC)C(C)(C)C1` (stereo not shown) [Example 16, 4-methoxy-3-(N-(2-(4-methoxy-3,3-dimethylpiperidin-1-yl)-5-(trifluoromethyl)phenyl)sulfamoyl)benzoic acid]: the IC50 is below 500 nM.

In the case of `COc1ccc(C(=O)O)cc1S(=O)(=O)Nc1cc(C(F)(F)F)ccc1N1CCC(O)(C(F)(F)F)CC1` [Example 17, 3-(N-(2-(4-hydroxy-4-(trifluoromethyl)piperidin-1-yl)-5-(trifluoromethyl)phenyl)sulfamoyl)-4-methoxybenzoic acid], the 50% inhibitory concentration (IC50) is above 5000 nM.

On to `COc1ccc(C(=O)O)cc1S(=O)(=O)Nc1cc(C(F)(F)F)ccc1N1CC(C)(O)C1` [Example 18, 3-(N-(2-(3-hydroxy-3-methylazetidin-1-yl)-5-(trifluoromethyl)phenyl)sulfamoyl)-4-methoxybenzoic acid], for which the IC50 is below 5000 nM.

Consider `COc1ccc(C(=O)O)cc1S(=O)(=O)Nc1cc(C(F)(F)F)ccc1N1CC2(CCO2)C1` [Example 19, 3-(N-(2-(1-oxa-6-azaspiro[3.3]heptan-6-yl)-5-(trifluoromethyl)phenyl)sulfamoyl)-4-methoxybenzoic acid], for which the IC50 was below 5000 nM.

`COc1ccc(C(=O)O)cc1S(=O)(=O)Nc1cc(C(F)(F)F)ccc1N1CCC(C)(O)C1` (stereo not shown) [Example 20, 3-(N-(2-(3-hydroxy-3-methylpyrrolidin-1-yl)-5-(trifluoromethyl)phenyl)sulfamoyl)-4-methoxybenzoic acid]: the IC50 was below 5000 nM.

As to `COc1ccc(C(=O)O)cc1S(=O)(=O)Nc1cc(C(F)(F)F)ccc1N1CC(O)(C2CC2)C1` [Example 21, 3-(N-(2-(3-cyclopropyl-3-hydroxyazetidin-1-yl)-5-(trifluoromethyl)phenyl)sulfamoyl)-4-methoxybenzoic acid], the IC50 was above 5000 nM.

Turning to `COc1ccc(C(=O)O)cc1S(=O)(=O)Nc1cc(C(F)(F)F)ccc1N1CC(C)(OC)C1` [Example 22, 4-methoxy-3-(N-(2-(3-methoxy-3-methylazetidin-1-yl)-5-(trifluoromethyl)phenyl)sulfamoyl)benzoic acid], the concentration for half-maximal inhibition (IC50) is above 5000 nM.

Regarding `COc1ccc(C(=O)O)cc1S(=O)(=O)Nc1cc(C(F)(F)F)ccc1N1[C@@H]2CC[C@H]1C[C@@H](O)C2` [Example 23, 3-(N-(2-(endo-3-hydroxy-8-azabicyclo [3.2.1]octan-8-yl)-5-(trifluoromethyl)phenyl)sulfamoyl)-4-methoxybenzoic acid], the IC50 was above 5000 nM.

As for `COc1ccc(C(=O)O)cc1S(=O)(=O)Nc1cc(C(F)(F)F)ccc1N1CCC(O)C(C)(C)C1` (stereo not shown) [Example 24, 3-(N-(2-(4-hydroxy-3,3-dimethylpiperidin-1-yl)-5-(trifluoromethyl)phenyl)sulfamoyl)-4-methoxybenzoic acid], the IC50 was below 500 nM.

Turning to `COc1ccc(C(=O)O)cc1S(=O)(=O)Nc1cc(C(F)(F)F)ccc1N1C[C@H]2CCCC[C@H]2C1` [Example 25, 4-methoxy-3-(N-(2-(cis-octahydroisoindol-2-yl)-5-(trifluoromethyl)phenyl)sulfamoyl)benzoic acid], the IC50 is below 5000 nM.

As to `COc1ccc(C(=O)O)cc1S(=O)(=O)Nc1cc(C(F)(F)F)ccc1N1CC(O)(C(F)(F)F)C1` [Example 26, 3-(N-(2-(3-hydroxy-3-(trifluoromethyl)azetidin-1-yl)-5-(trifluoromethyl)phenyl)sulfamoyl)-4-methoxybenzoic acid], the half-maximal inhibitory concentration (IC50) was below 500 nM.

As for `COc1ccc(C(=O)O)cc1S(=O)(=O)Nc1cc(C(F)(F)F)ccc1N1CC[C@@H](O)[C@@H](F)C1` [Example 27, 3-(N-(2-((3S,4R)-3-fluoro-4-hydroxypiperidin-1-yl)-5-(trifluoromethyl)phenyl)sulfamoyl)-4-methoxybenzoic acid], the half-inhibitory concentration (IC50) is below 5000 nM.

For the compound `COc1ccc(C(=O)O)cc1S(=O)(=O)Nc1cc(C(F)(F)F)ccc1N1CCC(C)(O)CC1` [Example 28, 3-(N-(2-(4-hydroxy-4-methylpiperidin-1-yl)-5-(trifluoromethyl)phenyl)sulfamoyl)-4-methoxybenzoic acid], the IC50 was below 500 nM.

Regarding `COc1ccc(C(=O)O)cc1S(=O)(=O)Nc1cc(C(F)(F)F)ccc1N1CCCC(C)(O)C1` (stereo not shown) [Example 29, 3-(N-(2-(3-hydroxy-3-methylpiperidin-1-yl)-5-(trifluoromethyl)phenyl)sulfamoyl)-4-methoxybenzoic acid], the IC50 was below 500 nM.

On to `CCc1ccc(C(=O)O)cc1S(=O)(=O)Nc1cc(C(F)(F)F)ccc1N1C[C@H](C)C[C@H](C)C1` [Example 30], for which the IC50 was below 500 nM.

Regarding `COc1ccc(C(=O)O)cc1S(=O)(=O)Nc1cc(C(F)(F)F)ccc1N1CCCCC1(C)C` [Example 31, 3-(N-(2-(2,2-dimethylpiperidin-1-yl)-5-(trifluoromethyl)phenyl)sulfamoyl)-4-methoxybenzoic acid], the half-maximal inhibitory concentration (IC50) is below 500 nM.

In the case of `COc1ccc(C(=O)O)cc1S(=O)(=O)Nc1cc(C(F)(F)F)ccc1N1CCCOCC1` [Example 32, 3-(N-(2-(1,4-oxazepan-4-yl)-5-(trifluoromethyl)phenyl)sulfamoyl)-4-methoxybenzoic acid], the IC50 is below 500 nM.
